According to paper PMC3600304, “Inhibitors of Fatty Acid Synthesis Induce PPARα-Regulated Fatty Acid β-Oxidative Genes: Synergistic Roles of L-FABP and Glucose” (PPAR Research, 2013):

Target: T1, L-FABP (Rattus norvegicus, UniProt P02692)
T1 construct: made in house
T1 sequence (P02692 1-127): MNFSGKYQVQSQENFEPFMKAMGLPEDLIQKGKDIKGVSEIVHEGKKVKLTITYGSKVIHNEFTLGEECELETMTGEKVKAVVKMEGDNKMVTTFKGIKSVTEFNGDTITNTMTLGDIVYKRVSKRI
Test: Displacement of L-FABP-bound ANS
Type: binding
Settings: read-out: K i, displacing L-FABP-bound ANS
Method: Advantage was taken of the fact that NBD-stearic acid bound to L-FABP (two ligand binding sites) as well as SCP-2 (single-ligand binding site) to design a NBD-stearic acid displacement assay that allowed determination of which fatty acid synthesis inhibitors or their CoA thioesters bound to these LCFA/LCFA-CoA binding proteins. Displacement of NBD-stearate from L-FABP and SCP-2 was determined by incubating L-FABP or SCP-2 (25 nM in 10 mM phosphate buffer) with NBD stearate (40 nM) for 12 min to obtain maximal fluorescence, followed by titration with increasing amount of ligand. From the displacement curve, the K i value was calculated as described. All experiments were carried out with a thermostated cuvette to maintain temperature at 24°C using a circulating water bath. ANS displacement assay was performed as described.

Ki: 5.59 ± 0.31 µM
SMILES: C=C1C(=O)OC(CCCCCCCC)C1C(=O)O (stereo not shown) [C75, 4-methylene-2-octyl-5-oxotetrahydrofuran-3-carboxylic acid]
